Experimental findings from patent EP1071442B9, “METHODS AND COMPOSITIONS FOR PEPTIDE SYNTHESIS (T-20)” (priority 1998, dated 1999) are described below.

Data set [1] in a line: thermal stability of T-20 fragments (water-saturated or dry) at elevated temperatures, purity change by HPLC. It counts as physicochemical. The procedure:
A series of experiments were conducted at to characterize the thermal stability of the intermediate T-20 fragments. T-20 fragments were saturated with water, filtered and then placed in enclosed containers and exposed to elevated temperatures. At several time points samples were collected and analyzed by HPLC methods to access the purity changes. Stability of the dry T-20 fragments was also characterized by thermogravimetric analysis (TGA).

Residues, ends and D or L forms follow the SMILES beside them. *: point of attachment. NHTrityl = c1ccc(C(N*)(c2ccccc2)c2ccccc2)cc1; Fmoc = O=C(OCC1c2ccccc2-c2ccccc21)*; Boc = CC(C)(C)OC(=O)*; OtBu = CC(C)(C)O*; tBu = CC(C)(C)*

Molecule `CC(C)C[C@H](NC(=O)[C@H](COC(C)(C)C)NC(=O)[C@H](C)NC(=O)[C@H](Cc1cn(C(=O)OC(C)(C)C)c2ccccc12)NC(=O)[C@H](CCCCNC(=O)OC(C)(C)C)NC(=O)[C@H](CC(=O)OC(C)(C)C)NC(=O)OCC1c2ccccc2-c2ccccc21)C(=O)N[C@@H](Cc1cn(C(=O)OC(C)(C)C)c2ccccc12)C(=O)N[C@@H](CC(=O)NC(c1ccccc1)(c1ccccc1)c1ccccc1)C(=O)N[C@@H](Cc1cn(C(=O)OC(C)(C)C)c2ccccc12)C(=O)N[C@@H](Cc1ccccc1)C(N)=O` [F(27-36)-NH2] (Fmoc-D(OtBu)K(Boc)W(Boc)AS(tBu)LW(Boc)D(NHTrityl)W(Boc)F-NH2) showed a degradation in data set [1] (after 24 hours at 80 °C) of 1.4%. Besides, the stability to drying entry in data set [1] (drying at 40 °C) is “stable”.
For `CC(C)C[C@H](NC(=O)[C@H](CCC(=O)OC(C)(C)C)NC(=O)[C@H](CC(C)C)NC(=O)[C@H](CC(C)C)NC(=O)[C@H](CCC(=O)OC(C)(C)C)NC(=O)[C@H](CCC(=O)NC(c1ccccc1)(c1ccccc1)c1ccccc1)NC(=O)[C@H](CCC(=O)OC(C)(C)C)NC(=O)[C@H](CC(=O)NC(c1ccccc1)(c1ccccc1)c1ccccc1)NC(=O)[C@H](CCCCNC(=O)OC(C)(C)C)NC(=O)[C@H](CCC(=O)OC(C)(C)C)NC(=O)OCC1c2ccccc2-c2ccccc21)C(=O)O` [F(17-26)-OH] (Fmoc-E(OtBu)K(Boc)D(NHTrityl)E(OtBu)E(NHTrityl)E(OtBu)LLE(OtBu)L-OH), the “stability in 1% TFA/DCM” value amounted to 1 %/day.
